Data from patent US7105510B2, “Non-nucleoside reverse transcriptase inhibitors” (Boehringer Ingelheim (Canada) Ltd., priority 2002, dated 2006).

Legend:
HIV-1 RT WT = molecular target: T1, HIV-1 RT WT (Human immunodeficiency virus type 1 group M subtype B, UniProt P03366); experiment: Reverse Transcriptase (RT) assay, wild type; assay type: biochemical
T1 construct: mutations that occur in the reverse transcriptase segment of the pol gene
Text: (§1) Based upon testing of these compounds, as described below, it is known that they inhibit the RNA-dependent DNA polymerase activity of HIV-1 RT. Utilizing the Reverse Transcriptase (RT) Assay described below, compounds can be tested for their ability to inhibit the RNA-dependent DNA polymerase activity of HIV-1 RT. Certain specific compounds described in the Examples which appear below, were so tested. The results of this testing appear in Table 2 as IC50 (nM) and EC50 (nM).
(§2) Reverse Transcriptase (RT) and Cell-Based Assays
(§3) The assays are as described in WO 01/96338A1, the contents of which are hereby incorporated herein.

HIV-1 RT K103N/Y181C = molecular target: T2, HIV-1 RT K103N/Y181C (Human immunodeficiency virus type 1 group M subtype B, UniProt P03366, K702N/Y780C); experiment: Reverse Transcriptase (RT) assay, double mutant K103N/Y181C; assay type: biochemical
T2 construct: mutations that occur in the reverse transcriptase segment of the pol gene
Text: as §1, §2, §3

HIV-1 WT = experiment: Cell-based assay, wild type; details: Human immunodeficiency virus 1
Text: as §2, §3

[1] = system: HIV-1 K103N/Y181C (103/181); experiment: Cell-based assay, 103/181 double mutant; details: Human immunodeficiency virus 1, read-out: EC50 103/181
Text: as §2, §3

Row | Compound | IC50 (HIV-1 RT WT) [nM] | IC50 (HIV-1 RT K103N/Y181C) [nM] | EC50 (HIV-1 WT) [nM] | EC50 [1] [nM]
1 | CCN1c2ncc(CCOc3cccc4c3CNC(=O)N4)cc2C(=O)N(C)c2cccnc21 [Entry 110, 5,11-Dihydro-11-ethyl-5-methyl-8-{2-{(1,2,3,4-tetrahydro-2-oxo-5-quinazolinyl)oxy}ethyl}-6H-dipyrido[3,2-b:2′,3′-e][1,4]diazepin-6-one] | < 50 | > 100 | < 10 | < 10
2 | CCN1c2ncc(CCOc3cccc4c3CNC(=O)N4C)cc2C(=O)Nc2c(C)ccnc21 [Entry 116] | < 50 | > 100 | – | –
3 | CCN1c2ncc(CCOc3cccc4c3CNC(=O)O4)cc2C(=O)N(C)c2cccnc21 [Entry 124, 5,11-Dihydro-8-{2-{(3,4-dihydro-2-oxo-2H-1,3-benzoxazin-5-yl)oxy}ethyl}-11-ethyl-5-methyl-6H-dipyrido[3,2-b:2′,3′-e][1,4]diazepin-6-one] | < 50 | < 50 | – | –
4 | CCN1c2ncc(CCOc3cccc4c3CNC(=O)N4)cc2C(=O)Nc2c(C)ccnc21 [Entry 111] | < 50 | > 100 | < 10 | 10 to 50
5 | CCN1c2ncc(CCOc3cccc4c3CN(C)C(=O)N4C)cc2C(=O)Nc2c(C)ccnc21 [Entry 115] | < 50 | > 100 | – | –
6 | CCN1c2ncc(CCOc3cccc4c3CNC(=O)C4)cc2C(=O)N(C)c2cccnc21 [Entry 123, 5,11-Dihydro-11-ethyl-5-methyl-8-{2-{(1,2,3,4-tetrahydro-3-oxo-8-isoquinolinyl)oxy}ethyl}-6H-dipyrido[3,2-b:2′,3′-e][1,4]diazepin-6-one] | < 50 | < 50 | – | –
7 | CCN1c2ncc(CCOc3cccc4c3CN(C)C(=O)N4C)cc2C(=O)N(C)c2cccnc21 [Entry 112] | < 50 | > 100 | < 10 | 10 to 50
8 | CCN1c2ncc(CCOc3cccc4c3COC(=O)N4)cc2C(=O)Nc2c(C)ccnc21 [Entry 127] | < 50 | > 100 | – | –
9 | CCN1c2ncc(CCOc3cccc4c3CC(=O)N4)cc2C(=O)N(C)c2cccnc21 [Entry 105, 5,11-Dihydro-8-{2-{(2,3-dihydro-2-oxo-1H-indol-4-yl)oxy}ethyl}-11-ethyl-5-methyl-6H-dipyrido[3,2-b:2′,3′-e][1,4]diazepin-6-one] | 50 to 100 | > 100 | – | –
10 | CCN1c2ncc(CCOc3cccc4c3CNC(=O)N4C)cc2C(=O)N(C)c2cccnc21 [Entry 113] | < 50 | < 50 | < 10 | < 10
11 | CCN1c2ncc(CCOc3ccc4c(c3)CN(C)C(=O)N4C)cc2C(=O)N(C)c2cccnc21 [Entry 120] | < 50 | > 100 | – | –
12 | CCN1c2ncc(CCOc3cccc4c3CN(O)C4=O)cc2C(=O)N(C)c2cccnc21 [Entry 103, 5,11-Dihydro-8-{2-{(2,3-dihydro-2-hydroxy-1-oxo-1H-isoindol-4-yl)oxy}ethyl}-11-ethyl-5-methyl-6H-dipyrido[3,2-b:2′,3′-e][1,4]diazepin-6-one] | 50 to 100 | > 100 | < 10 | 10 to 50
13 | CCN1c2ncc(CCOc3ccc4on(C)c(=O)c4c3)cc2C(=O)Nc2c(C)cc(F)nc21 [Entry 130] | < 50 | > 100 | – | –
14 | CCN1c2ncc(CCOc3cccc4c3CCNC4=O)cc2C(=O)Nc2c(C)ccnc21 [Entry 109] | < 50 | > 100 | – | –
15 | CCN1c2ncc(CCOc3cccc4c3CCNC4=O)cc2C(=O)N(C)c2cccnc21 [Entry 108] | < 50 | 50 to 100 | – | –
16 | CCN1c2ncc(CCOc3cccc4c3C(C)(C)OC(=O)N4)cc2C(=O)N(C)c2cccnc21 [Entry 125, 5,11-Dihydro-8-{2-{(1,4-dihydro-4,4-dimethyl-2-oxo-2H-3,1-benzoxazin-5-yl)oxy}ethyl}-11-ethyl-5-methyl-6H-dipyrido[3,2-b:2′,3′-e][1,4]diazepin-6-one] | 50 to 100 | > 100 | – | –
17 | CCN1c2ncc(CCOc3cccc4[nH]c(=O)n(C)c34)cc2C(=O)N(C)c2cccnc21 [Entry 132] | 50 to 100 | > 100 | – | –

Row | Compound | IC50 (HIV-1 RT WT) [nM] | IC50 (HIV-1 RT K103N/Y181C) [nM] | EC50 (HIV-1 WT) [nM] | EC50 [1] [nM]
18 | CCN1c2ncc(CCOc3cccc4c3n(C)c(=O)n4C)cc2C(=O)N(C)c2cccnc21 [Entry 131] | 50 to 100 | > 100 | – | –
19 | CCN1c2ncc(CCOc3cccc4c3COC(=O)N4CC(=O)O)cc2C(=O)N(C)c2cccnc21 [Entry 128, 5-[2-(6,11-dihydro-11-ethyl-5-methyl-6-oxo-5H-dipyrido[3,2-b:2′,3′-e][1,4]diazepin-8-yl)ethoxy]-2-oxo-2H-3,1-benzoxazine-1(4H)-acetic acid] | 50 to 100 | > 100 | – | –
20 | CCN1c2ncc(CCOc3ccc4c(c3)CNC(=O)N4)cc2C(=O)N(C)c2cccnc21 [Entry 121] | 50 to 100 | > 100 | – | –
21 | CCN1c2ncc(CCOc3ccc4c(c3)COC(=O)N4)cc2C(=O)N(C)c2cccnc21 [Entry 133] | < 50 | > 100 | – | –
22 | CCN1c2ncc(CCOc3cccc4c3COC(=O)N4)cc2C(=O)N(C)c2cccnc21 [Entry 126, 5,11-Dihydro-8-{2-{(1,4-dihydro-2-oxo-2H-3,1-benzoxazin-5-yl)oxy}ethyl}-11-ethyl-5-methyl-6H-dipyrido[3,2-b:2′,3′-e][1,4]diazepin-6-one] | < 50 | > 100 | – | –
23 | CCN1c2ncc(CCOc3ccc4on(C(C)(C)C)c(=O)c4c3)cc2C(=O)Nc2c(C)cc(F)nc21 [Entry 129, 5,11-Dihydro-8-{2-{{2,3-dihydro-2-(1,1-dimethylethyl)-3-oxo-1,2-benzisoxazol-5-yl}oxy}ethyl}-2-fluoro-11-ethyl-4-methyl-6H-dipyrido[3,2-b:2′,3′-e][1,4]diazepin-6-one] | 50 to 100 | > 100 | – | –
24 | Cc1ccnc2c1NC(=O)c1cc(CCOc3cccc4c3CNC(=O)N4)cnc1N2C1CC1 [Entry 114] | < 50 | > 100 | – | –
25 | CCN1c2ncc(CCOc3cccc4c3CC(=O)N4C)cc2C(=O)N(C)c2cccnc21 [Entry 107, 5,11-dihydro-8-{2-{(2,3-dihydro-1-methyl-2-oxo-1H-indol-4-yl)oxy}ethyl}-11-ethyl-5-methyl-6H-dipyrido[3,2-b:2′,3′-e][1,4]diazepin-6-one] | 50 to 100 | – | – | –
26 | CCN1c2ncc(CCOc3ccc4c(c3)CNC(=O)N4C)cc2C(=O)N(C)c2cccnc21 [Entry 119] | < 50 | > 100 | – | –
27 | CCN1c2ncc(CCOc3cccc4c3CNC4=O)cc2C(=O)N(C)c2cccnc21 [Entry 101, 5,11-Dihydro-8-{2-{(2,3-dihydro-1-oxo-1H-isoindol-4-yl)oxy}ethyl}-11-ethyl-5-methyl-6H-dipyrido[3,2-b:2′,3′-e][1,4]diazepin-6-one] | < 50 | > 100 | < 10 | < 10
28 | CCN1c2ncc(CCOc3cccc4c3CNC(=O)N4CC(=O)O)cc2C(=O)N(C)c2cccnc21 [Entry 118] | < 50 | > 100 | > 50 | > 50
29 | CCN1c2ncc(CCOc3cccc4c3CNC4=O)cc2C(=O)Nc2c(C)ccnc21 [Entry 102] | < 50 | > 100 | < 10 | < 10
30 | CCN1c2ncc(CCOc3cccc4c3CN(Cc3ccncc3)C4=O)cc2C(=O)N(C)c2cccnc21 [Entry 104, 5,11-dihydro-8-{2-{{2,3-dihydro-1-oxo-2-(4-pyridinylmethyl)-1H-isoindol-4-yl}oxy}ethyl}-11-ethyl-5-methyl-6H-dipyrido[3,2-b:2′,3′-e][1,4]diazepin-6-one] | < 50 | 50 to 100 | – | –
31 | CCN1C(=O)c2cc(CCOc3cccc4c3CNC(=O)N4)cnc2N(CC)c2ncccc21 [Entry 117] | < 50 | > 100 | – | –
32 | CCN1c2ncc(CCOc3ccc4[nH]c(=O)[nH]c4c3)cc2C(=O)N(C)c2cccnc21 [Entry 122, 5,11-Dihydro-8-{2-{(2,3-dihydro-2-oxo-1H-benzimidazol-5-yl)oxy}ethyl}-11-ethyl-5-methyl-6H-dipyrido[3,2-b:2′,3′-e][1,4]diazepin-6-one] | 50 to 100 | > 100 | – | –
33 | CCN1c2ncc(CCOc3cccc4c3C(C)C(=O)N4C)cc2C(=O)N(C)c2cccnc21 (stereo not drawn) [Entry 106, 5,11-dihydro-8-{2-{(2,3-dihydro-1,3-dimethyl-2-oxo-1H-indol-4-yl)oxy}ethyl}-11-ethyl-5-methyl-6H-dipyrido[3,2-b:2′,3′-e][1,4]diazepin-6-one] | 50 to 100 | > 100 | – | –
